Data on 1 compound can be found in publication PMC7876106 (Scientific Reports, 2021).

Assay [1] concerns TRF2-TERRA. Description: HTRF assay, disruption of TERRA and TRF2 peptide interaction. It counts as binding. The following applies: compared to BRACO-19. How it is done:
Mei et al, 2020 TERRA Requires TRF2 GAR Domain
Homogenous Time Resolved Fluorescence (HTRF) assay
All material including peptide, nucleic acids and compounds were dissolved in buffer containing 20mM HEPES pH7.5 150mM KCl. To measure the direct interaction between peptide and nucleic acids, 5µL of FITC-labeled TRF2 GAR peptide was added into each 384 well with a sequential of 2-fold dilution starting from 200nM, 5µL of 10nM biotin-labeled nucleic acid was then added into the well and fixed with the peptide, 5µL of buffer was added to make each well contain 15µL solution. The plate was incubated at room temperature for 30 minutes, following by adding 5µL of streptavidin-Tb-cryptate (Cisbio, PerkinElmer) and the plate was then incubated at room temperature for another 30 minutes before measured by EnVision plate reader (330/520 nm). To measure the compound disruption on peptide and nucleic acids, 5µL of small molecule was added into each 384 well first with a sequential of 2-fold dilution starting from 5µM, followed by 5µL of 10nM nucleic acid and 100nM peptide and then the plate was incubated at room temperature for 30 minutes. The rest step was similar to the direct binding measurement assay. The curves were analyzed using Prism 8.0. […]
Total RNA was isolated as previously described by using TRIzol reagent (Invitrogen) 1. […] RNA concentration was determined by Nanodrop-2000 (ThermoFisher). […]
In general terms: In TR-FRET formats the signal depends on donor and acceptor labels being close together.

The subject of assay [2] is G4 telomere DNA. In words: ChIP with BG4 antibody for G4 telomere DNA in LOX cells. The following applies: 2 μM, 2 days. It counts as cell-based, human. How it is done:
DNA ChIP assays was performed as described previously 3 with minor modifications. Briefly, 1 x 10^7 LOX cells treated with indicated chemicals (2 µM) for 48 hrs were subject to ChIP analysis and immunoprecipitated DNA was assayed by DNA dot-blot using 32P-labeled (TTAGGG)4 or Alu probe. […]

Assay [3] deals with TERRA (unlabelled) (RNA, G4) UUAGGGUUAGGGUUAGGGUUAGGG
Description: circular dichroism. The following applies: 150 mM KCl; 20 mM HEPES pH 7.5, 20% PEG8000, 4 °C, 10 μM RNA, mixed 1:1 molar ratio. Background: Circular dichroism is the unequal absorption of left and right circularly polarised light.

Take `CCc1c(C)c2cc3nc(cc4nc(cc5c(CC)c(C)c(cc1[nH]2)n5C)C(C)=C4CCC(=O)O)C(CCC(=O)O)=C3C` [NMM, N-methyl mesoporphyrin IX]: the “inhibition of TRF2-TERRA by HTRF” value in assay [1] is on record as “preferential inhibition of TRF2-TERRA”. Moreover, the “G4 telomere DNA (BG4 ChIP) relative to PP or PDS treated cells” value in assay [2] is reported as “significant reduction in G4 telomere DNA”. The binding entry in assay [3] was “yes”.
